Common to all, as to assay type: ADME, organism-based
Data set [1] relates to Homo sapiens. The data set can be described thus: Pharmacokinetic parameters for Mycophenolic acid following single oral administration of Mycophenolate Mofetil to subjects with different health status. The arrangement: dose 1 g, route oral. The following applies: in vivo, dosed compound id 90, dosed compound name MYCOPHENOLATE MOFETIL, gender male and female, regimen Single dose, tissue Plasma.

Data set [2] relates to Homo sapiens. The data set can be described thus: Pharmacokinetic parameters for Mycophenolic acid following multiple administration of Mycophenolate Mofetil to hepatic, cardiac and renal transplant patients, at least 5 days after transplant. More on the design: dose 600 mg/m2, dose 1.5 g, dose 1 g, route oral, route iv. The settings on record: in vivo, 120 h, dosed compound id 90, dosed compound name MYCOPHENOLATE MOFETIL, gender male and female, regimen Twice daily, tissue Plasma.

For data set [3], the system named is Homo sapiens. The data set can be described thus: Apparent Volume of distribution (Vd) of […] following oral and intravenous (IV) administration of Mycophenolate Mofetil to 12 healthy volunteers. The settings on record: in vivo, dosed compound id 90, dosed compound name MYCOPHENOLATE MOFETIL, gender male and female, tissue Plasma.

Values joined by “and” are separate entries in the source; they are usually repeats but may differ in a detail not shown here. Equal entries are not always repeated.

In the case of `COc1c(C)c2c(c(O)c1C/C=C(\C)CCC(=O)O)C(=O)OC2` [MYCOPHENOLIC ACID], the Tmax in data set [1] (dose 1 g, route oral) was 0.8 h and 0.75 h and 0.63 h and 1 h and 0.85 h; in data set [2] (iv, dose 1 g), 1.58 h and 1.5 h; in data set [2] (po, dose 1 g) it was 1.33 h and 1.31 h; in data set [2] (po, dose 1.5 g), 1.15 hr [middle of 5 runs]. For the same compound, in data set [1], the “AUC(0-48)” value amounted to 29800 ng·h/mL. For the same compound, the “AUC(0-96)” value in data set [1] is 45000 ng·h/mL and 59900 ng·h/mL and 78600 ng·h/mL. Besides, the peak concentration (Cmax) in data set [1] is 24500 ng/mL and 25300 ng/mL and 16300 ng/mL and 22400 ng/mL. Also, the “Total AUC” value in data set [1] turned out to be 63900 ng·h/mL. Also, the figures for the “AUC(0-12)” value in data set [2] (sampling time1 4 hours) and in data set [2] were 54.1 µg·h/mL and 43.3 mcg.hr/mL [middle of 21 runs], respectively. The Vd in data set [3] (iv) amounted to 3.6 L/kg; in data set [3] (po), 4 L/kg.
